Assay [1] concerns Caco-2. As to the kind of experiment: Cytotoxicity against human Caco2 cells by CCK8 assay. The assay is classed as functional, cell-based. For orientation: Formazan colour is commonly taken as a measure of viable cells.
The test system of assay [2] is Escherichia coli. As to the kind of experiment: Antibacterial activity against Escherichia coli by resazurin dye based microdilution method. The assay is classed as functional. On the technique in general: Alamar Blue is a resazurin reagent that responds to reducing activity.
Assay [3] has as its system Klebsiella pneumoniae. Description: Antibacterial activity against Klebsiella pneumoniae by resazurin dye based microdilution method. The assay is classed as functional.
For assay [4], the system named is Staphylococcus aureus. Description: Antibacterial activity against Staphylococcus aureus ATCC 29213 by resazurin dye based microdilution method. Format: functional.
The test system of assay [5] is A549. Description: Cytotoxicity against human A549 cells by CCK8 assay. The assay is classed as functional, cell-based.
The subject of assay [6] is Staphylococcus aureus. As to the kind of experiment: Antibacterial activity against Methicillin resistant Staphylococcus aureus by resazurin dye based microdilution method. Format: functional.
Assay [7] deals with PC-3M. As to the kind of experiment: Cytotoxicity against human PC3M cells after 72 hrs by MTT assay. The assay is classed as functional, cell-based.

The structures appear in SMILES notation. Converted amounts (≈) assume the structure as drawn.

One may read the IC50 as the midpoint of a concentration-inhibition curve. The term MIC denotes the smallest concentration in the dilution series that meets the test's criterion for growth inhibition. Consider `CN(C=O)C1=C2C(=CSS2(=O)=O)NC1=O`, for which the IC50 in assay [1] and in assay [5] was greater than 64000 nM in each case. The minimum inhibitory concentration (MIC) stood at 32 µg/mL (≈ 130 µM) in assay [2], 64 µg/mL (≈ 260 µM) in assay [3], 8 µg/mL (≈ 32.5 µM) in assay [4] and 8 µg/mL (≈ 32.5 µM) in assay [6].

Consider `CN(C=O)c1c2sscc-2[nH]c1=O`, for which the IC50 in assay [1] is 570 nM; in assay [5], 1340 nM; in assay [7], 1700 nM. Further, the minimum inhibitory concentration (MIC) in assay [2], in assay [3], in assay [4] and in assay [6] was 0.5 µg/mL (≈ 2.33 µM) in each case.

Turning to `O=CNc1c2sscc-2[nH]c1=O`, the MIC in assay [2] was 1 µg/mL (≈ 4.99 µM); in assay [3], 1 µg/mL (≈ 4.99 µM); in assay [4], 4 µg/mL (≈ 20 µM); in assay [6], 2 µg/mL (≈ 9.99 µM).

With `CN(C=O)C1=C2SCSC=C2NC1=O`, the half-inhibitory concentration (IC50) in assay [1] and in assay [5] was greater than 64000 nM in each case. Moreover, the minimum inhibitory concentration (MIC) in assay [2], in assay [3], in assay [4] and in assay [6] was greater than 64 µg/mL in each case.

As for `CC(=O)NC[C@H]1CN(c2ccc(N3CCOCC3)c(F)c2)C(=O)O1` [LINEZOLID], the minimal inhibitory concentration (MIC) in assay [2] is greater than 64 µg/mL; in assay [3], greater than 64 µg/mL; in assay [4], 1 µg/mL (≈ 2.96 µM); in assay [6], 1 µg/mL (≈ 2.96 µM).

These data come from ChEMBL document CHEMBL4602683, “The Isolation of Pyrroloformamide Congeners and Characterization of Their Biosynthetic Gene Cluster” (J Nat Prod, 2020).
